pIC50: −log10 of the molar value. Where two headings read alike, the source gives them in different places.
Key:
CLK1(h) = target: T1, CLK1(h) (Homo sapiens, UniProt P49759); experiment: radiometric protein kinase assay, CLK1; assay type: biochemical
T1 construct: purchased Eurofins, Dundee, Scotland
Procedure: (§1) Enzymatic biochemical activities were evaluated in radiometric protein kinase assays (Eurofins, Dundee, Scotland). Kinases are incubated with buffer, substrate and [γ-^33P]-ATP (specific activity approx. 500 cpm/pmol, concentration as required). The reaction is initiated by the addition of the MgATP mix. After incubation for 40 minutes at room temperature, the reaction is stopped by the addition of 3% phosphoric acid solution. 10 μL of the reaction is then spotted onto a P30 filtermat and washed three times for 5 minutes in 75 mM phosphoric acid and once in methanol prior to drying and scintillation counting.
(§2) All compounds are prepared to 50× final assay concentration in 100% DMSO. Positive control wells contain all components of the reaction with 2% DMSO. Blank wells contain all components of the reaction, with a reference inhibitor replacing the compound of interest. Each kinase is assigned a standard assay concentration of ATP within 20 μM of its apparent KM. Compounds were screened at 1 μM in duplicate or tested at 10 concentrations at half log dilution starting from 10 μM in singlicate. Dose response curves were fitted with four parameter logistic curve to obtain IC50 values. The average coefficient of variation (CV) of the conducted assay is 4.4%.

CLK2(h) = target: T2, CLK2(h) (Homo sapiens, UniProt P49760); experiment: radiometric protein kinase assay, CLK2; assay type: biochemical; settings: enzyme inhibition, ATP 10 μM
T2 construct: purchased Eurofins, Dundee, Scotland
T2 sequence (P49760 whole entry): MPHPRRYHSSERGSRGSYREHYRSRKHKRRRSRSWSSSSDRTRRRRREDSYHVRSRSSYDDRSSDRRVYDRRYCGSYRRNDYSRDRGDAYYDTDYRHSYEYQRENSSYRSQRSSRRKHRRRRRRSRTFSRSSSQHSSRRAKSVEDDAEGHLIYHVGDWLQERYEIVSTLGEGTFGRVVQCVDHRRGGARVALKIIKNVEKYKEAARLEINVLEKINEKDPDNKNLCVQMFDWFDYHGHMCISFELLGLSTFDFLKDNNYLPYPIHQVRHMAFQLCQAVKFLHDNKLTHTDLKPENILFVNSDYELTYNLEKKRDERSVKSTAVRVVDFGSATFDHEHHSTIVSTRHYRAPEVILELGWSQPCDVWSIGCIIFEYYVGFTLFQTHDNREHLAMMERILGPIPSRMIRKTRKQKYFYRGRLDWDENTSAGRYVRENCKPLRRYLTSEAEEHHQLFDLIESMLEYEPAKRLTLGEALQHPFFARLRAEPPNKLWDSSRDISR
Procedure: as §1, §2

CLK3(h) = target: T3, CLK3(h) (Homo sapiens, UniProt P49761); experiment: radiometric protein kinase assay, CLK3; assay type: biochemical
T3 construct: purchased Eurofins, Dundee, Scotland
T3 sequence (P49761 whole entry): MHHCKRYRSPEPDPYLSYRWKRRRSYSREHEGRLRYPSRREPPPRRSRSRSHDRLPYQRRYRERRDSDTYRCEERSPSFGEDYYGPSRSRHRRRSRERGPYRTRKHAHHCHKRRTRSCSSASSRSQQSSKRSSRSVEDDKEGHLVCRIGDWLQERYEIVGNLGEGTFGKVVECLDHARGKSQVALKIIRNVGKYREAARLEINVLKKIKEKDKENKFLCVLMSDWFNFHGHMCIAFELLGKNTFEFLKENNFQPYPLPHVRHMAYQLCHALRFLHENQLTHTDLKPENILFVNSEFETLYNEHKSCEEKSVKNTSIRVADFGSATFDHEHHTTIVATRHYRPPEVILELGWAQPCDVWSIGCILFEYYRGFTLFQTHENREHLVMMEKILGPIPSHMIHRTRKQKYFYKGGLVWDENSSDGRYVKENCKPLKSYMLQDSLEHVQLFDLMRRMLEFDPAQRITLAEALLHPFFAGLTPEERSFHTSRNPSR
Procedure: as §1, §2

CLK4(h) = target: T4, CLK4(h) (Homo sapiens, UniProt Q9HAZ1); experiment: radiometric protein kinase assay, CLK4; assay type: biochemical; settings: enzyme inhibition, ATP 10 μM
T4 construct: purchased Eurofins, Dundee, Scotland
T4 sequence (Q9HAZ1 whole entry): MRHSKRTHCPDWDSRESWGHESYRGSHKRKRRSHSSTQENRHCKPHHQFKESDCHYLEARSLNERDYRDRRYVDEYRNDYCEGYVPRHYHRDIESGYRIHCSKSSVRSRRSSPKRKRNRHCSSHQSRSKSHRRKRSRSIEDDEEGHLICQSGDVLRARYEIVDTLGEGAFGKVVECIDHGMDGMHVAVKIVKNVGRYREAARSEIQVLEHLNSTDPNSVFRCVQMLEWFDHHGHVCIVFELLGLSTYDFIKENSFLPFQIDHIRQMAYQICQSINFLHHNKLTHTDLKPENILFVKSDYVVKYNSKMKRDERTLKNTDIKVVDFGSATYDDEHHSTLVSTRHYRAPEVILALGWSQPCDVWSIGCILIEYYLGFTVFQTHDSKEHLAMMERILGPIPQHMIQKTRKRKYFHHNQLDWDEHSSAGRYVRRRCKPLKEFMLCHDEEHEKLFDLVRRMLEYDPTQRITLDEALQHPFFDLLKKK
Procedure: as §1, §2

CDK1/cyclinB(h) = target: T5, CDK1/cyclinB(h) (Homo sapiens, UniProt P06493); experiment: radiometric protein kinase assay, CDK1; assay type: biochemical; settings: enzyme inhibition, ATP 45 μM
T5 construct: purchased Eurofins, Dundee, Scotland
T5 sequence (P06493 whole entry): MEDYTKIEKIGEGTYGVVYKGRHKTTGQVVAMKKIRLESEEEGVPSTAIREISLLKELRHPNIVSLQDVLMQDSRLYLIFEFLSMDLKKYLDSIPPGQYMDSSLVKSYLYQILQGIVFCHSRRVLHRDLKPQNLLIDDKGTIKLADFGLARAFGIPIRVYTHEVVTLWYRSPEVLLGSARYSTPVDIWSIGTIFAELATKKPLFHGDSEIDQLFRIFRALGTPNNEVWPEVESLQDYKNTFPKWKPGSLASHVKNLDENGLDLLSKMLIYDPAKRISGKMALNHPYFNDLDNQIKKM
T5 sequence (P14635 whole entry partner): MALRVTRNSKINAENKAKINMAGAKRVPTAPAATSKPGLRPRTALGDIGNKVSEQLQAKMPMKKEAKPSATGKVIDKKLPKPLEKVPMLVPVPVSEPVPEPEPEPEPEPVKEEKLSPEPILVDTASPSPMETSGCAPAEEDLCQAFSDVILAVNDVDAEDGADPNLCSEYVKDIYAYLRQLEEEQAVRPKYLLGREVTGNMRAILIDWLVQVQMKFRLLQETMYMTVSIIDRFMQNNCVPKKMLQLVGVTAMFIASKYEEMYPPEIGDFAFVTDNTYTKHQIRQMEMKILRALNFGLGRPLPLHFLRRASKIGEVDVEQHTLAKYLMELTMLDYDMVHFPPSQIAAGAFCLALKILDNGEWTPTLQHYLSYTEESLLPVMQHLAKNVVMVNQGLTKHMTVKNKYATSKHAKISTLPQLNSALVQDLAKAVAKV
Procedure: as §1, §2

CDK4/cyclinD3(h) = target: T6, CDK4/cyclinD3(h) (Homo sapiens, UniProt P11802); experiment: radiometric protein kinase assay, CDK4; assay type: biochemical; settings: enzyme inhibition, ATP 20 μM
T6 construct: purchased Eurofins, Dundee, Scotland
T6 sequence (P11802 whole entry): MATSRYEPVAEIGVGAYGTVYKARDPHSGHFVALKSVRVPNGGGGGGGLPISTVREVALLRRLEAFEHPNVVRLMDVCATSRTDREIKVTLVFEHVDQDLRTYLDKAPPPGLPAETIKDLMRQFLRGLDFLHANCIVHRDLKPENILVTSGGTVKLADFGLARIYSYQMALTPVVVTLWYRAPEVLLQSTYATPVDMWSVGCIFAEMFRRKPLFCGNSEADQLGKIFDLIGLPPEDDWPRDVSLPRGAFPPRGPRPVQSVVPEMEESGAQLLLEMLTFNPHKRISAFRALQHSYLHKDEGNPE
T6 sequence (P30281 whole entry partner): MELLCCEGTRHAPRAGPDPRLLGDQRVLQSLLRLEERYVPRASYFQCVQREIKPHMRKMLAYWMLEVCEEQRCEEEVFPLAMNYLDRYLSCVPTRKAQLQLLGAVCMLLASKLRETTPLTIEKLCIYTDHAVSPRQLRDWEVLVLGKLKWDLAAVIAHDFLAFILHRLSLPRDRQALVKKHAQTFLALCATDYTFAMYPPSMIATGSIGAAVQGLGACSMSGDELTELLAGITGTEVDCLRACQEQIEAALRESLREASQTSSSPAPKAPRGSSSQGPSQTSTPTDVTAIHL
Procedure: as §1, §2

CDK6/cyclinD3(h) = target: T7, CDK6/cyclinD3(h) (Homo sapiens, UniProt Q00534); experiment: radiometric protein kinase assay, CDK6; assay type: biochemical; settings: enzyme inhibition, ATP 20 μM
T7 construct: purchased Eurofins, Dundee, Scotland
T7 sequence (Q00534 whole entry): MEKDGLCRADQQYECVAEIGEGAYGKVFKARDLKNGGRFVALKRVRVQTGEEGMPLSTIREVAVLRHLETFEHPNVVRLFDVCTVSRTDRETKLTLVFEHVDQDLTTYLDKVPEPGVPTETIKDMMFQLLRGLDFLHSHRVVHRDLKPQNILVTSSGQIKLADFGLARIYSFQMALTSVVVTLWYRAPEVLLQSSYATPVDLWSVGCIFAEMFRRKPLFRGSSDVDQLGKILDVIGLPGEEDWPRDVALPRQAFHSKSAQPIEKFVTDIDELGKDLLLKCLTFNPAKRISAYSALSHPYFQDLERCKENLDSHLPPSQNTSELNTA
T7 sequence (P30281 whole entry partner): as the sequence (P30281 whole entry partner) above
Procedure: as §1, §2

[1] = tested on: MDM2 alternate splicing in Rh-18 cells; experiment: Rh-18 MDM2 RT-PCR gel-based assay (orthogonal secondary assay); assay type: cell-based; settings: 10 μM, 8 h
Procedure: These hits were then subjected to a confirmatory assay in the Rh-18 MDM2 RT-PCR gel-based assay at a concentration of 10 μM.
Referring to FIG. 6, cells were exposed to 0.5% DMSO, 0.2 μM sudemycin D6 or […] CGP-74514A for 8 h. Total RNA was extracted by RNeasy Mini Kit (Qiagen). High capacity RNA-to-cDNA kit (Life technologies) was used to convert the RNA to cDNA.
Referring to FIG. 7, cells were exposed to 0.5% DMSO (lane 1), 1 μM sudemycin D6 (lane 2), 10 μM Compound 14 (lane 3), and 10 μM Compound 15 (lane 4) for 8 h. The total RNA was extracted by RNeasy Mini Kit (Qiagen). High capacity RNA-to-cDNA kit (Life technologies) was used to convert the RNA to cDNA. […] Ubiquitin transcripts (165 bp) in the same cells were used as a control (Fan et al. (2011) ACS Chem. Biol. 6: 582-9).

[2] = tested on: SK-MEL-2/Luc-MDM2 cells (MDM2-Luc exon-skipping reporter); experiment: cell-based MDM2-Luc exon-skipping reporter assay; settings: for MDM2/Luc: luciferase activation vs DMSO control, average of three experiments

T1 sequence (P49759 whole entry): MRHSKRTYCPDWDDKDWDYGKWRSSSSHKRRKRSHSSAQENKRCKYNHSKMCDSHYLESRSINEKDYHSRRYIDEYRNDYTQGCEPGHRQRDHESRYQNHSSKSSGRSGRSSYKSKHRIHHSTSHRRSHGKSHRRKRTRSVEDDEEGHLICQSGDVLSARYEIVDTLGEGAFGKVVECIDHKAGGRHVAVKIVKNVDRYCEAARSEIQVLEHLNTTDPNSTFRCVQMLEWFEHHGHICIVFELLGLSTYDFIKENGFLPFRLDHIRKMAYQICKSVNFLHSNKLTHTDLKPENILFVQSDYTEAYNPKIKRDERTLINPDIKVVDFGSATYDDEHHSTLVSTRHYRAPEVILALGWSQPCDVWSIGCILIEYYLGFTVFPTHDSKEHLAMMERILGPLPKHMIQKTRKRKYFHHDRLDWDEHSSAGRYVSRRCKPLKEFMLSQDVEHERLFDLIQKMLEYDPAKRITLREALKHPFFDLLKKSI

| SMILES | pIC50 (CLK1(h)) | IC50 (CLK2(h)) [nM] | pIC50 (CLK3(h)) | IC50 (CLK4(h)) [nM] | IC50 (CDK1/cyclinB(h)) [nM] | IC50 (CDK4/cyclinD3(h)) [nM] | IC50 (CDK6/cyclinD3(h)) [nM] | activity in the Rh-18 MDM2 RT-PCR gel-based confirmatory assay [1] | MDM2/Luc [2] | IC50 (CLK1(h); enzyme inhibition, radiometric, ATP 10 μM, read-out: IC50 (nM) CLK1) [nM] | IC50 (CLK3(h); enzyme inhibition, radiometric, ATP 90 μM, read-out: IC50 (nM) CLK3) [nM] | luciferase response (Luc fold) in the MDM2-Luc reporter assay ([2]; compared with less potent CLK inhibitors of the series) | MDM2-Luc activity ([2]; result in words, no concentration stated) |
| --- | --- | --- | --- | --- | --- | --- | --- | --- | --- | --- | --- | --- | --- |
| CCn1cnc2c(Nc3cccc(Cl)c3)nc(NC3CCCCC3N)nc21 (racemic) [CGP-74514A (1), Racemicm-(Cis-2-Aminocyclohexyl)-N-(3-Chlorophenyl)-9-Ethyl-9H-Purine-2,6-Diamine, reference compound] | 6.83 | 111 | < 6.00 | 104 | 382 | 573 | > 1000 | clear activity | Active |  |  |  |  |
| CC(=O)Nc1cc(Cl)cc(Nc2nc(NC3CCCCC3N)nc3c2ncn3C(C)C)c1 (racemic) [Compound 15, Racemic N-Cis(3-((2-((2-Aminocyclohexyl)Amino)-9-Isopropyl-9H-Purin-6-Yl)Amino)-5-Chlorophenyl)Acetamide] |  | 13 |  | 64 | > 1000 | 930 | > 1000 | confirmation | Active | 19 | > 1000 | stronger luciferase response | strong MDM2-Luc activity |
